How the values were obtained:
Assay in all cases: viability relative to DMSO control (fraction); higher = less drug effect (more viable cells)
[1] = tested on: primary ALL patient cells (S048); conditions: 0.008 µM; 48 h
Summary of the method: (§1)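 The cells were primary mononuclear tumour cells, either fresh or cryopreserved, isolated by Ficoll from blood or bone marrow or derived from processed lymph node. Each well of a 384-well plate received 4 × 10^4 cells onto compounds pre-plated at five concentrations, with one well per concentration. The medium was RPMI-1640 with penicillin/streptomycin, L-glutamine and human serum, and plates stood at 37 °C and 5% CO2 for 48 h. Viability is reported as CellTiter-Glo luminescence relative to the median of 16 inner DMSO wells.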

[2] = tested on: primary AML patient cells (S002); conditions: 0.04 µM; 48 h
Summary of the method: as §1

[3] = tested on: primary AML patient cells (S006); conditions: 0.04 µM; 48 h
Summary of the method: as §1

[4] = tested on: primary AML patient cells (S007); conditions: 1 µM; 48 h
Summary of the method: as §1

[5] = tested on: primary AML patient cells (S009); conditions: 0.0016 µM; 48 h
Summary of the method: as §1

[6] = tested on: primary AML patient cells (S011); conditions: 0.2 µM; 48 h
Summary of the method: as §1

[7] = tested on: primary AML patient cells (S012); conditions: 48 h
Summary of the method: as §1

[8] = tested on: primary AML patient cells (S017); conditions: 0.04 µM; 48 h
Summary of the method: as §1

[9] = tested on: primary AML patient cells (S019); conditions: 1 µM; 48 h
Summary of the method: as §1

[10] = tested on: primary AML patient cells (S021); conditions: 48 h
Summary of the method: as §1

[11] = tested on: primary AML patient cells (S037); conditions: 48 h
Summary of the method: as §1

[12] = tested on: primary AML patient cells (S044); conditions: 1 µM; 48 h
Summary of the method: as §1

[13] = tested on: primary AML patient cells (S055); conditions: 0.008 µM; 48 h
Summary of the method: as §1

[14] = tested on: primary AML patient cells (S056); conditions: 0.008 µM; 48 h
Summary of the method: as §1

[15] = tested on: primary AML patient cells (S071); conditions: 1 µM; 48 h
Summary of the method: as §1

[16] = tested on: primary AML patient cells (S072); conditions: 48 h
Summary of the method: as §1

[17] = tested on: primary AML patient cells (S079); conditions: 48 h
Summary of the method: as §1

[18] = tested on: primary AML patient cells (S081); conditions: 1 µM; 48 h
Summary of the method: as §1

[19] = tested on: primary AML patient cells (S089); conditions: 48 h
Summary of the method: as §1

[20] = tested on: primary B-PLL patient cells (S016); conditions: 48 h
Summary of the method: as §1

[21] = tested on: primary BL patient cells (S005); conditions: 48 h
Summary of the method: as §1

[22] = tested on: primary DLBCL patient cells (S049); conditions: 48 h
Summary of the method: as §1

[23] = tested on: primary DLBCL patient cells (S076); conditions: 0.2 µM; 48 h
Summary of the method: as §1

[24] = tested on: primary DLBCL patient cells (S082); conditions: 48 h
Summary of the method: as §1

[25] = tested on: primary FL patient cells (S022); conditions: 48 h
Summary of the method: as §1

[26] = tested on: primary MCL patient cells (S041); conditions: 48 h
Summary of the method: as §1

[27] = tested on: primary MCL patient cells (S053); conditions: 48 h
Summary of the method: as §1

[28] = tested on: primary MCL patient cells (S063); conditions: 48 h
Summary of the method: as §1

[29] = tested on: primary MCL patient cells (S068); conditions: 48 h
Summary of the method: as §1

[30] = tested on: primary T-NHL patient cells (S058); conditions: 0.0016 µM; 48 h
Summary of the method: as §1

Work on C=CC(=O)N1CCC[C@@H](n2nc(-c3ccc(Oc4ccccc4)cc3)c3c(N)ncnc32)C1 [Ibrutinib] yielded a viability [1] of 1.12, a viability [2] of 1.18 and a viability [3] of 0.988. It also gave a viability [4] of 0.338, a viability [5] of 0.965 and a viability [6] of 0.972. The viability ([7]; 0.0016 µM) was 1.1, the viability ([7]; 0.008 µM) was 1.09 and the viability [8] was 1.1. The viability [9] was 1, the viability ([10]; 0.04 µM) was 1 and the viability ([10]; 1 µM) was 0.913. The viability ([11]; 0.0016 µM) was 1.4, the viability ([11]; 0.04 µM) was 1.5 and the viability ([11]; 1 µM) was 1.75. It also gave a viability [12] of 0.777, a viability [13] of 0.949 and a viability [14] of 1.1. The viability [15] was 0.673, the viability ([16]; 0.0016 µM) was 1.2 and the viability ([16]; 0.04 µM) was 0.913. For the same compound, the viability ([17]; 0.04 µM) was 0.879, the viability ([17]; 0.2 µM) was 0.862 and the viability ([17]; 1 µM) was 1.25. It also gave a viability [18] of 1.14, a viability ([19]; 0.008 µM) of 0.988 and a viability ([19]; 0.04 µM) of 1. The viability ([19]; 0.2 µM) was 0.615, the viability ([19]; 1 µM) was 0.6 and the viability ([20]; 0.0016 µM) was 0.576. It also gave a viability ([20]; 0.008 µM) of 0.507, a viability ([20]; 0.04 µM) of 0.517 and a viability ([20]; 0.2 µM) of 0.508. For the same compound, the viability ([20]; 1 µM) was 0.547, the viability ([21]; 0.0016 µM) was 1.1 and the viability ([21]; 0.008 µM) was 0.982. The viability ([21]; 0.2 µM) was 0.978, the viability ([22]; 0.0016 µM) was 0.848 and the viability ([22]; 0.04 µM) was 0.729. For the same compound, the viability ([22]; 0.2 µM) was 0.687, the viability ([22]; 1 µM) was 0.686 and the viability [23] was 0.89. The viability ([24]; 0.0016 µM) was 0.711, the viability ([24]; 0.008 µM) was 0.583 and the viability ([24]; 0.04 µM) was 0.465. It also gave a viability ([24]; 0.2 µM) of 0.458, a viability ([24]; 1 µM) of 0.477 and a viability ([25]; 0.2 µM) of 0.978. The viability ([25]; 1 µM) was 0.978, the viability ([26]; 0.0016 µM) was 0.874 and the viability ([26]; 0.008 µM) was 0.802. For the same compound, the viability ([27]; 0.0016 µM) was 0.591, the viability ([27]; 0.008 µM) was 0.57 and the viability ([27]; 0.04 µM) was 0.595. For the same compound, the viability ([27]; 0.2 µM) was 0.588, the viability ([27]; 1 µM) was 0.601 and the viability ([28]; 0.0016 µM) was 0.475. It also gave a viability ([28]; 0.008 µM) of 0.292, a viability ([28]; 0.04 µM) of 0.253 and a viability ([28]; 0.2 µM) of 0.255. The viability ([28]; 1 µM) was 0.262, the viability ([29]; 0.0016 µM) was 0.77 and the viability ([29]; 0.008 µM) was 0.697. The viability ([29]; 0.2 µM) was 0.687, the viability ([29]; 1 µM) was 0.783 and the viability [30] was 1.12.
